{"source": "ChEMBL document CHEMBL1130906", "about": "“Actinomycin D, C2 and VII, inhibitors of Grb2-SHC interaction produced by Streptomyces” (Bioorg Med Chem Lett, 1998)", "note": "pIC50: −log10 of the molar value. Numbered stars: 1 amine (or outer) side, 2 acyl side, 3 side chain; on linkers, the order of the positions; unused ones are H or OH. Bridge positions count the residues as written; N and C are the ends. Square brackets hold non-standard residues; d marks the D form. Peptide text beside a SMILES is read from it. I, II: the chains in the order shown. Actinocin(1to9) = Cc1c2oc3c(C)ccc(C(=O)[*:2])c3nc-2c(C(=O)[*:1])c(N)c1=O; Actinocin(9to1) = Cc1c2oc3c(C)ccc(C(=O)[*:1])c3nc-2c(C(=O)[*:2])c(N)c1=O; NMeV = CN[CH](C(=O)O)C(C)C; Sar = CNCC(=O)O", "data": [{"molecular_target": "Growth factor receptor-bound protein 2 (Homo sapiens, UniProt P62993)", "sequence (P62993 whole entry, the tested form may be a part)": "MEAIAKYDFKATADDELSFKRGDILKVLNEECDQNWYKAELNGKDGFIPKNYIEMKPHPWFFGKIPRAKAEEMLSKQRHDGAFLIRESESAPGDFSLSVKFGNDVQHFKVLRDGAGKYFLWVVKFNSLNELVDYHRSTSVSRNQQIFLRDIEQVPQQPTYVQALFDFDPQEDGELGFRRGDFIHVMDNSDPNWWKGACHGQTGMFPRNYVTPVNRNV", "experiment": "Inhibition of GST-Grb2 Tyrosine kinase SH2 domain binding to [3H]labeled-phosphopeptide (Ac-SpYVNK-NH-C(O)-CH2CH2H3)", "values": [{"smiles": "CCC(C)C1NC(=O)C(NC(=O)c2c3nc4c(C(=O)NC5C(=O)NC(C(C)CC)C(=O)N6CCCC6C(=O)N(C)CC(=O)N(C)C(C(C)C)C(=O)OC5C)ccc(C)c4oc-3c(C)c(=O)c2N)C(C)OC(=O)C(C(C)C)N(C)C(=O)CN(C)C(=O)C2CCCN2C1=O", "note": "(stereo not drawn) (I: TIP[Sar][NMeV] / II: TIP[Sar][NMeV]; ester I:1-I:C, II:1-II:C; linker I:N-II:N via Actinocin(1to9); configuration not given here)", "pIC50": 5.12}, {"smiles": "CC[C@H](C)[C@@H]1NC(=O)[C@@H](NC(=O)c2ccc(C)c3oc4c(C)c(=O)c(N)c(C(=O)N[C@@H]5C(=O)N[C@@H](C(C)C)C(=O)N6CCC[C@H]6C(=O)N(C)CC(=O)N(C)[C@@H](C(C)C)C(=O)O[C@@H]5C)c-4nc23)[C@@H](C)OC(=O)[C@H](C(C)C)N(C)C(=O)CN(C)C(=O)[C@@H]2CCCN2C1=O", "note": "(I: TIP[Sar][NMeV] / II: TVP[Sar][NMeV]; ester I:1-I:C, II:1-II:C; linker I:N-II:N via Actinocin(9to1))", "pIC50": 5.23}, {"smiles": "Cc1c2oc3c(C)ccc(C(=O)N[C@@H]4C(=O)N[C@H](C(C)C)C(=O)N5CCC[C@H]5C(=O)N(C)CC(=O)N(C)[C@@H](C(C)C)C(=O)O[C@@H]4C)c3nc-2c(C(=O)N[C@@H]2C(=O)N[C@H](C(C)C)C(=O)N3CCC[C@H]3C(=O)N(C)CC(=O)N(C)[C@@H](C(C)C)C(=O)O[C@@H]2C)c(N)c1=O", "note": "[DACTINOMYCIN] (I: T[dV]P[Sar][NMeV] / II: T[dV]P[Sar][NMeV]; ester I:1-I:C, II:1-II:C; linker I:N-II:N via Actinocin(9to1))", "pIC50": 5.30}]}]}
